The results in this text go back to PubChem BioAssay AID2458 (Broad Institute, 2010).

A word on the EC50: it is the midpoint of the concentration-response curve.

The target of this assay is Luciferin 4-monooxygenase (Photinus pyralis) (UniProt P08659). Description: Confirmatory luminescence dose response, luciferase translation or activity, H4 neuroglioma cells (AID 2458).

Results filed as inconclusive are left out.

Luciferin 4-monooxygenase (Photinus pyralis), sequence (P08659 whole entry, looked up): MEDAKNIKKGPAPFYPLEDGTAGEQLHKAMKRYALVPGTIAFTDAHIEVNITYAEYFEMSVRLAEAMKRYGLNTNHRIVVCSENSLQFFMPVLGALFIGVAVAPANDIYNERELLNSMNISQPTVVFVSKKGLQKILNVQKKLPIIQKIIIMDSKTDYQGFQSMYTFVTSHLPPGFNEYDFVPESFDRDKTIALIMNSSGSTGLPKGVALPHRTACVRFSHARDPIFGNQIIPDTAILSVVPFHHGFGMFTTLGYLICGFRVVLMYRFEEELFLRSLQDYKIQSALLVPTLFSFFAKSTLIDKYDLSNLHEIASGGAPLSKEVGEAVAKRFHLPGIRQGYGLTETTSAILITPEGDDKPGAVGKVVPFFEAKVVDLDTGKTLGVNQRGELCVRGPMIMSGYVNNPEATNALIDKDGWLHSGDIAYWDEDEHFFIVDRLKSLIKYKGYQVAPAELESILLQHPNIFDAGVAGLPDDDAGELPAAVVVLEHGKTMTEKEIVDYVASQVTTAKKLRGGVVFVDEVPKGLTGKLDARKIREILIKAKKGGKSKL

For the molecule `COc1ccc(O)c2c(=O)c3c(OC)cc4c(c3oc12)C1C=COC1O4` (stereo unspecified), the 50% effective concentration (EC50) was 521 nM.
